Measured values from patent publication US20260055431A1, “METHODS OF DELIVERING COMPONENTS TO MICROORGANOSPHERES” (Xilis, Inc., priority 2022, published 2026).
“Also recorded” adds a separate entry of the source. Like-named read-outs stand apart in the source and are kept apart here.

Assays:
[1] = system: MOSs derived from multiple myeloma (MM) bone marrow biopsies; test: Multiple myeloma MOS apoptosis assay, Caspase 3/7 green dye, Incucyte imaging; format: cell-based, human; settings: imaged every 2 hours for 4 days
Description: FIGS. 36A and 36B show the efficacy of Lenalidomide and Bortezoid on MOSs derived from multiple myeloma (MM) bone marrow biopsies. MM MOSs (on day 11) were treated with Lenalidomine (5 uM) or Bortezoid (2 nM). Caspase 3/7 green dye was added in the assay to monitor apoptosis. Incucyte images were taken every 2 hours for 4 days. […] If this test were run on, for example, traditional bulk organoids, the results would not be reliable (due to the lack of patient immune cells) leading to uncertainty in the best course of action for patient treatment.

[2] = system: MOSs generated from biopsy material; test: Drug effect screen on MOSs from biopsy material (Example 3); format: cell-based, human; settings: Example 3 patient biopsy
Description: (§1) In a similar set of experiments, MOSs were generated from biopsy material (FIG. 23A), and a drug effect screen was performed using the resulting MOSs. […] Thus, the MOSs correlated strongly with patient response to the standard of care drugs. In this case, the patient endured six months of side effects and toxicities that may have been avoided by the predicted response from the MOSs, indicating (within 7-10 days from the biopsy) that the tumor would not respond to these drugs.

tumor [3] = test: Patient response to standard of care drugs (Example 3); format: in vivo, human; settings: patient treated with both Oxalipalatin and Irinotecan, after 6 months of treatment
Description: as §1

tumor [4] = test: Actual tumor response of the patient to treatment (Example 2); format: in vivo, human; settings: Example 2 patient, before vs post treatment
traditional cell line = test: Traditional (2D) cell line dosed with drug; format: cell-based; settings: all dose ranges examined
Excerpt: As mentioned above, the MOSs and methods of using them to screen for drug compositions may be used to accurately predict the response of a patient tumor to one or more drug therapies. […] For example, in FIG. 22A-22D, the MOSs, but not a cell line, was able to correlate with patient response.

[5] = system: tumor MOSs generated from a patient biopsy; test: Drug screen on MOSs from patient biopsy (Example 2); format: cell-based, human; settings: Example 2 patient biopsy
[6] = system: PDX19187 bulk organoids and MOSs; format: cell-based, human; settings: cell viabilities measured after 3 days of treatment
Description: (§2) Organoids were formed from Patient Derived Xenograft cells (including the PDX240 cells described above and a second PDX cell line, PDX19187) and were compared with MOSs formed using the same cells. The organoids were formed using conventional techniques in which a large mass of MATRIGEL in a well or dish was seeded with cells and cultured until growth was confirmed. MOSs were generated from the traditional organoids.
(§3) Both traditional (“bulk”) organoids and the MOSs were then treated with the same drugs (e.g., Oxaliplatin or SN38) and cell viabilities were measured after 3 days of treatment.

[7] = system: PDX240 bulk organoids and MOSs; test: Drug response of bulk organoids vs MOSs, cell viability, PDX240; format: cell-based, human; settings: cell viabilities measured after 3 days of treatment
Excerpt: The MOSs may be formed from cell lines grown as part of a Patient Derived Xenograft (PDX). For example, FIGS. 28A-28D illustrate MOSs formed from cultured PDX240 cells. PDX240 cells are a Patient Derived Xenograft (PDX) tumor cell line (numbered 240 based on patient source) that were human tumors grown in immunodeficient mice (PDX) to form in vivo tumors. The xenograft tissue was extracted dissociated, and used to form MOSs as described above. In this example a single cell was included in each MOS as it was formed. […] With progressive time in culture, at least some of the MOSs show the cells dividing and forming structures.
as §2, §3

human liver MOSs = test: Toxicity assay using human liver MOSs; format: cell-based; settings: 10 mM
Excerpt: Similarly, FIGS. 34A-34B also show toxicity assays using human liver MOSs.

mouse liver MOSs = test: Toxicity assay using mouse liver MOSs; format: cell-based; settings: 10 mM
[8] = system: MOSs derived from renal tumor biopsies; test: IO assay of renal tumor MOSs, Annexin V apoptosis marker; format: cell-based, human; settings: MOSs from renal tumor biopsy
Description: IO assays of the MOSs for these pulmonary and renal tumor biopsies were prepared with an Annexin V marker to indicate cellular apoptosis. […] If this test were run on, for example, traditional bulk organoids, the results would not be meaningful (due to the lack of patient immune cells) leading to uncertainty in the best course of action for patient treatment, […]

[9] = system: MOSs derived from a pulmonary tumor biopsy; test: IO assay of pulmonary tumor MOSs, Annexin V apoptosis marker; format: cell-based, human
Description: IO assays of the MOSs for these pulmonary and renal tumor biopsies were prepared with an Annexin V marker to indicate cellular apoptosis. […] If this test were run on, for example, traditional bulk organoids, the results would not be meaningful (due to the lack of patient immune cells) leading to uncertainty in the best course of action for patient treatment,
(§4) IO assays of the MOSs for this pulmonary tumor biopsy were prepared with an Annexin V marker to indicate cellular apoptosis. […] If this test were run on, for example, traditional bulk organoids, the results would be less accurate (because ESK1 would not be able to reach its target) leading to uncertainty in the best course of action for patient treatment.
as §4, with “apoptosis and Cytolight Red dye to indicate tumor infiltrating lymphocytes (TILs).” for “apoptosis.”, “(due” for “(because ESK1 would not be able”, “the inability of PBMC to penetrate the traditional bulk organoids)” for “reach its target)”
This is an indication that TILs can penetrate MOS to kill tumor cells. […]

## CC(C)C[C@H](NC(=O)[C@H](Cc1ccccc1)NC(=O)c1cnccn1)B(O)O [Bortezoid]
[1]; MM MOSs on day 11, 2 nM
  response in the form of tumor cell apoptosis (Caspase 3/7 green dye): does not and not

## CCc1c2c(nc3ccc(OC(=O)N4CCC(N5CCCCC5)CC4)cc13)-c1cc3c(c(=O)n1C2)COC(=O)[C@]3(O)CC [Irinotecan]
[2]
  percent survival of the MOSs in the presence of the drug: lack of effect
Tumor [3]
  patient response: no response

## Nc1cccc2c1CN(C1CCC(=O)NC1=O)C2=O (centres unmarked) [Lenalidomide]
[1]; MM MOSs on day 11, 5 uM
  response in the form of tumor cell apoptosis (Caspase 3/7 green dye): good response
[1]; MM MOSs on day 11, 5 uM, listed as Lenalidomine
  response in the form of tumor cell apoptosis (Caspase 3/7 green dye): induces apoptosis

## O=C1[O][Pt]2([NH][C@@H]3CCCC[C@H]3[NH]2)[O]C1=O [Oxaliplatin]
[2]
  percent survival of the MOSs in the presence of the drug: no change
Tumor [4]
  tumor response to treatment: responded to treatment
Traditional cell line
  effect of drug on cell line: no effect
[5]
  cell survival from the tumor MOSs: significant decreases in cell survival
Tumor [3]
  patient response: no response
[6]; listed as Oxalipalatin
  drug response curves, bulk organoids compared with MOSs: comparable response

## CCc1c2c(nc3ccc(O)cc13)-c1cc3c(c(=O)n1C2)COC(=O)[C@]3(O)CC [SN38, 7-Ethyl-10-hydroxy-camptothecin]
[7]
  drug response curves, bulk organoids compared with MOSs: comparable responses
[6]
  drug response curves, bulk organoids compared with MOSs: comparable responses

## CC(=O)Nc1ccc(O)cc1 [acetaminophen]
Human liver MOSs
  tissue in the treated MOSs compared with control group: significant increase atypical tissue structures (arrows) and debris
Mouse liver MOSs
  tissue in the MOSs compared with control group: smaller and contains many dead cells

## Nivolumab
[8]
  response in the form of tumor cell apoptosis (Annexin V marker): induces apoptosis; also recorded: good response
[9]
  response in the form of tumor cell apoptosis (Annexin V marker): induces apoptosis; also recorded: good response
